In ChEMBL document CHEMBL1201862, “PubChem BioAssay data set” (2004):
Active and inactive are the calls of the source.

Experiments:
[1] = test system: HEK293; experiment: inhibitors of LMP1-driven NF-kB reporter, dose response, cell-based, HEK293, luciferase, cherry-pick (AID 588343); format: functional; conditions: Homo sapiens
[2] = inhibitors of clade B AD8 Env fusion, dose response, cell-based, cherry-pick (AID 652062); format: functional;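 further: luciferase signal from cell-cell fusion driven by HIV-1 clade B AD8 Env; potency is for inhibitors of fusion seen as a drop in luminescence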
[3] = inhibitors of HIV Env-driven cell fusion, dose response, cherry-pick (AID 652057); format: functional, cell-based
[4] = ZM109 Env clade C HIV-1 fusion inhibitors, dose response, HeLa effector, CEM target cells, luciferase, cherry-pick (AID 652058); format: functional, cell-based
[5] = off-target signal loss in HeLa-CEM21 co-culture – HeLa F-luc CTL cells, cherry-picked, counter-screen for HIV-1 Env fusion inhibitor project, dose response (AID 652040); format: functional, cell-based;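 further: potency for signal decrease marking cytotoxic or nonspecific inhibition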
[6] = CEM21 lymphoblast cell cytotoxicity, dose response, cytotoxicity control for viral fusion inhibitor project, CellTiter-Glo luminescence, cherry-picked (AID 652042); format: functional, cell-based;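 further: potency for signal decrease meaning cytotoxicity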
[7] = target: Cytochrome P450 2C19 (Homo sapiens, UniProt P33261); experiment: Cytochrome panel assay with activity outcomes. Panel member name: p450-cyp2c19 Compounds with AC50 equal or less than 10 uM are considered active; format: functional
Cytochrome P450 2C19, sequence (P33261 whole entry): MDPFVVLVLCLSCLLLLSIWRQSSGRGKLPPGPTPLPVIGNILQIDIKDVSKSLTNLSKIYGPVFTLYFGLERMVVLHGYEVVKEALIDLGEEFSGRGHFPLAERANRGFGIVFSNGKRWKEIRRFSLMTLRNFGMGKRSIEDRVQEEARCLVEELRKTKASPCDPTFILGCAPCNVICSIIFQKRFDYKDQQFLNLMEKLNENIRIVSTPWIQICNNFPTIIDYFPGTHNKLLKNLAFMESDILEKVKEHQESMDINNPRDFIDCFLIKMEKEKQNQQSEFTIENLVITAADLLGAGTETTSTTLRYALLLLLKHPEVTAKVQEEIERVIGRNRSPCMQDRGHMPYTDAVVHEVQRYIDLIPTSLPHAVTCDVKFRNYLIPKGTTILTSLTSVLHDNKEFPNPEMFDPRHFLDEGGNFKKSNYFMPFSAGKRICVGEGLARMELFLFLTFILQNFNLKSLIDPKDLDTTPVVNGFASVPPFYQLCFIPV

[8] = target: T1, Cytochrome P450 3A4 (Homo sapiens, UniProt P08684);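 further: CYP3A4 tested as one member of a cytochrome P450 panel screen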
T1 sequence (P08684 whole entry): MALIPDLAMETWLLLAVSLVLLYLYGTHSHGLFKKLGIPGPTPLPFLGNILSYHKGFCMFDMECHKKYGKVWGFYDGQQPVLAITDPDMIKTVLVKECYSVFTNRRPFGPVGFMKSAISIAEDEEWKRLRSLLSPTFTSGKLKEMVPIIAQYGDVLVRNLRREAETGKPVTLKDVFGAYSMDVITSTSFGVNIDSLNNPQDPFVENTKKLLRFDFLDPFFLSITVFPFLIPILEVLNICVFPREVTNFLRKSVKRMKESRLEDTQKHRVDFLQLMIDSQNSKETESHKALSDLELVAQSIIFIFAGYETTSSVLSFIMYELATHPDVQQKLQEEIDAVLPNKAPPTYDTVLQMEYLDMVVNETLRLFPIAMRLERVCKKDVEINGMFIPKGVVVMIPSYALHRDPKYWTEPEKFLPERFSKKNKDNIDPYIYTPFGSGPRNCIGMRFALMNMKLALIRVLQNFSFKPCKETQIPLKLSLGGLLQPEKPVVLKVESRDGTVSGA

[9] = target: Cytochrome P450 2D6 (Homo sapiens, UniProt P10635);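 further: CYP2D6 member of a cytochrome P450 panel assay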
Cytochrome P450 2D6, sequence (P10635 whole entry): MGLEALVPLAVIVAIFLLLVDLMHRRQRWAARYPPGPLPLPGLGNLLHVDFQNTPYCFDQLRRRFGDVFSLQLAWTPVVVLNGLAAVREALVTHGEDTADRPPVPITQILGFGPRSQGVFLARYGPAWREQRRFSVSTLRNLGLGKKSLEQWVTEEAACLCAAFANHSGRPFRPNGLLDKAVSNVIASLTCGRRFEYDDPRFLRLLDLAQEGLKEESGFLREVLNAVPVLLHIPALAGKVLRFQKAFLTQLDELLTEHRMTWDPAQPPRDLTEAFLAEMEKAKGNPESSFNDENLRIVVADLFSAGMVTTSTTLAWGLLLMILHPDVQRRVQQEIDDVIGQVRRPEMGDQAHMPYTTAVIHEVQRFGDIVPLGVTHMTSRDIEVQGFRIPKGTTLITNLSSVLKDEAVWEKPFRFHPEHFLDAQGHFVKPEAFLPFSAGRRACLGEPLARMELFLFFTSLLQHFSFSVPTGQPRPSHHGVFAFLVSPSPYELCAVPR

[10] = test system: HeLa; experiment: HeLa cell cytotoxicity, dose response, cytotoxicity control for MITF activator project, CellTiter-Glo luminescence, cherry-pick samples (AID 540259); format: functional, cell-based; conditions: Homo sapiens
[11] = test system: Escherichia coli; experiment: microbe, parasite or virus in culture
[12] = target: Prothrombin (Bos taurus, UniProt P00735); experiment: thrombin inhibition, dose response, biochemical, fluorescence polarization, uHTS hits (AID 602369); format: functional
[13] = target: 26S proteasome non-ATPase regulatory subunit 14 (Homo sapiens, UniProt O00487); experiment: inhibition of proteasome subunit RPN11 – biochemical, fluorescence polarization, uHTS hits, confirmation (AID 602368); format: functional
26S proteasome non-ATPase regulatory subunit 14, sequence (O00487 whole entry): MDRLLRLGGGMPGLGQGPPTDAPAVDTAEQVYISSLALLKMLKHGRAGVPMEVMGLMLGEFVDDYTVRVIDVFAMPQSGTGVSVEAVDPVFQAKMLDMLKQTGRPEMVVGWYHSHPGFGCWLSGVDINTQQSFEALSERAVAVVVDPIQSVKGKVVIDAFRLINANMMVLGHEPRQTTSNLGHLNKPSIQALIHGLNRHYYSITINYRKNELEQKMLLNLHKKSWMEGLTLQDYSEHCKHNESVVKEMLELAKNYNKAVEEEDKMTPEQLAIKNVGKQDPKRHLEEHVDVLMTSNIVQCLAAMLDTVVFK

[14] = target: 72 kDa type IV collagenase (Homo sapiens, UniProt P08253); experiment: Dose Response validation of uHTS RPN11 inhibitor hits using a MMP-2 Fluorescence assay.; format: functional
72 kDa type IV collagenase, sequence (P08253 whole entry): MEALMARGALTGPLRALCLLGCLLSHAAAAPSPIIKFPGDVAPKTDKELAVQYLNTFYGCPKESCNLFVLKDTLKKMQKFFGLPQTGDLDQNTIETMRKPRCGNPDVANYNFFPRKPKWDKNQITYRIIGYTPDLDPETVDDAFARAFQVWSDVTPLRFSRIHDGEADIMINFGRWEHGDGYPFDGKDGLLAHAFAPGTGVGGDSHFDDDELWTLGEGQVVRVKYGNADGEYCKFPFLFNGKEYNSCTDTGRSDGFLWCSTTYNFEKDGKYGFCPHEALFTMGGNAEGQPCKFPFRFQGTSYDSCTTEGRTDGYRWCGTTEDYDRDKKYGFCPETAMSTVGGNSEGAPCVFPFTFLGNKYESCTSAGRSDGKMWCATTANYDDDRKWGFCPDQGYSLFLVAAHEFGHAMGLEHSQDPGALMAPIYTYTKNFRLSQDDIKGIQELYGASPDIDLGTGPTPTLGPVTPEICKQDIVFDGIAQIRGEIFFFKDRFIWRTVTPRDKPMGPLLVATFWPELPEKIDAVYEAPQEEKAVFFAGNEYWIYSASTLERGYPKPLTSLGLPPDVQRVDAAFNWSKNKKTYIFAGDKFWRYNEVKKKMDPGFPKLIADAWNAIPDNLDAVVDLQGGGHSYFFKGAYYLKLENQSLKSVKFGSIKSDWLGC

[15] = cells; format: functional
[16] = Vero E6 cell cytotoxicity, dose response, cytotoxicity control for non-replicating M. tuberculosis project, secondary assay (AID 492998); format: functional, VeroE6; conditions: Vero C1008
[17] = THP-1 cell cytotoxicity, dose response, cytotoxicity control for non-replicating M. tuberculosis project (AID 489025); format: functional
[18] = target: T2, High affinity choline transporter 1 (Homo sapiens, UniProt Q9GZV3); experiment: CHT inhibitors, dose response, cell-based, 5-point CRC, membrane potential dye (AID 504840); format: functional
T2 sequence (Q9GZV3 whole entry): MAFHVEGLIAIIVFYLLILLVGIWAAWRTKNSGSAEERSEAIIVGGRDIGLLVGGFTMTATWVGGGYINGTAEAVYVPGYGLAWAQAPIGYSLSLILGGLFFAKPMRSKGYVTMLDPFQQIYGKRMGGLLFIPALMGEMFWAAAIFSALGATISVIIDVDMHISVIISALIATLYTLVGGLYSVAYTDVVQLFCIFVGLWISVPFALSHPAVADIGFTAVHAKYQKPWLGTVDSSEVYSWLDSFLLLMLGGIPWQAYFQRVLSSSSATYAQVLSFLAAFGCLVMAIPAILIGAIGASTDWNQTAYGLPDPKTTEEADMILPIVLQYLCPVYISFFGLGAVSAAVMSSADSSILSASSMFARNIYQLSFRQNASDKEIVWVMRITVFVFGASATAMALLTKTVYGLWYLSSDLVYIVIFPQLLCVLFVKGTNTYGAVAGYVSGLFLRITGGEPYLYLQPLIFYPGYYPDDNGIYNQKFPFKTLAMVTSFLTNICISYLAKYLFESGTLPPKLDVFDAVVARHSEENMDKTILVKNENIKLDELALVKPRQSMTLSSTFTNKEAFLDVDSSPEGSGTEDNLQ

[19] = microbe, parasite or virus in culture; format: functional; conditions: Mycobacterium tuberculosis
[20] = target: Mitogen-activated protein kinase 10 (Homo sapiens, UniProt P53779); experiment: Dose response biochemical screening assay for inhibitors of c-Jun N-Terminal Kinase 3 (JNK3). [Related pubchem assays: 746 ]
Mitogen-activated protein kinase 10, sequence (P53779 whole entry): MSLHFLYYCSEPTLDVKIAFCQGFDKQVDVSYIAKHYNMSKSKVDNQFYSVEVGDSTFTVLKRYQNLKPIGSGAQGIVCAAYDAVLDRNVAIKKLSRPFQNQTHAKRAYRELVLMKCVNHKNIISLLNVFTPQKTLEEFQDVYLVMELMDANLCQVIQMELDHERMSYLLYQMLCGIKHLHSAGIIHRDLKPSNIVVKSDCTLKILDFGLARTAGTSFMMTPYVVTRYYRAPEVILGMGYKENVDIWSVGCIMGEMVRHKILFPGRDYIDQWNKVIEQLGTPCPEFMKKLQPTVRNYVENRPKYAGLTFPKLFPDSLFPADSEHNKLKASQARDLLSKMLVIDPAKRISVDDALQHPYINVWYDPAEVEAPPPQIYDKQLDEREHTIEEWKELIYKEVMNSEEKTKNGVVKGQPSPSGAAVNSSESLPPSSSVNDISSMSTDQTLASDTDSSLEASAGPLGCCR

[21] = cells
[22] = target: T3, Oxysterols receptor LXR-beta (Homo sapiens, UniProt P55055); format: functional, cell-based;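 further: Cell-based luminescence dose-response assay of agonist activity at LXR, run as a confirmatory counterscreen to a daf-12 agonist screen; HEK293 cells with Gal4-LXR fusion and GAL4-driven luciferase reporter; agonist potency from rising luciferase signal of a Gal4-LXR reporter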
T3 sequence (P55055 whole entry): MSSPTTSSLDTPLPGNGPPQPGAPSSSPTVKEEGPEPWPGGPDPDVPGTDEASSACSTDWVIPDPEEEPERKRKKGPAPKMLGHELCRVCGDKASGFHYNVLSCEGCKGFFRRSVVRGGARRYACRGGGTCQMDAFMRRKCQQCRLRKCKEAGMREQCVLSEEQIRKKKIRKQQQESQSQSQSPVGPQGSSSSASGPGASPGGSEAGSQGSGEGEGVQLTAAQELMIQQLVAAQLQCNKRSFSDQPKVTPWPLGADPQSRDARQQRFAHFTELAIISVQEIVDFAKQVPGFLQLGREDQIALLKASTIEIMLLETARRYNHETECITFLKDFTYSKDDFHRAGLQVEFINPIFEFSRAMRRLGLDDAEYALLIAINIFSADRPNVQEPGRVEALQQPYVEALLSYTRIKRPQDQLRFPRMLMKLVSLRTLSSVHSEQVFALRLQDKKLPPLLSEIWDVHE

[23] = target: T1, Cytochrome P450 3A4; remark: listed apart in the source
[24] = test system: Streptococcus; experiment: Group A Streptococcus viability loss, dose response, counter-screen for streptokinase expression inhibitor project, luminescence, BacTiterGlo (AID 1915); format: functional, organism-based;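 further: potency for reduction of bacterial viability or growth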
[25] = test system: Streptococcus sp. 'group A'; experiment: growth inhibition of control SK(-) GAS strain, dose response, counter-screen for streptokinase expression inhibitor project, luminescence, kanamycin, BacTiterGlo, confirmation (AID 1900); format: functional, organism-based
[26] = target: Induced myeloid leukemia cell differentiation protein Mcl-1 (Homo sapiens, UniProt Q07820); format: functional
Induced myeloid leukemia cell differentiation protein Mcl-1, sequence (Q07820 whole entry): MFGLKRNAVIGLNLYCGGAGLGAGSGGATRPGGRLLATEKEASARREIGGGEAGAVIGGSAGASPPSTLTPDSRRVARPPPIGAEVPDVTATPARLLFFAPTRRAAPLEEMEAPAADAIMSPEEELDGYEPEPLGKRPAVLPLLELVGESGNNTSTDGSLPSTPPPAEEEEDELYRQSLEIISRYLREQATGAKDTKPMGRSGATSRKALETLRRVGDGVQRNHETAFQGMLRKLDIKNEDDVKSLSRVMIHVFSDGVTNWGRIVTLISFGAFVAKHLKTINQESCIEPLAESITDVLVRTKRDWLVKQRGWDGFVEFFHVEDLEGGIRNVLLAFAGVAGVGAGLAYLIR

[27] = target: T4, Mannose-6-phosphate isomerase (Homo sapiens, UniProt P34949); experiment: human PMI inhibitors, high substrate, primary screen, biochemical, fluorescence intensity, high mannose 6-phosphate (AID 1220)
T4 sequence (P34949 whole entry): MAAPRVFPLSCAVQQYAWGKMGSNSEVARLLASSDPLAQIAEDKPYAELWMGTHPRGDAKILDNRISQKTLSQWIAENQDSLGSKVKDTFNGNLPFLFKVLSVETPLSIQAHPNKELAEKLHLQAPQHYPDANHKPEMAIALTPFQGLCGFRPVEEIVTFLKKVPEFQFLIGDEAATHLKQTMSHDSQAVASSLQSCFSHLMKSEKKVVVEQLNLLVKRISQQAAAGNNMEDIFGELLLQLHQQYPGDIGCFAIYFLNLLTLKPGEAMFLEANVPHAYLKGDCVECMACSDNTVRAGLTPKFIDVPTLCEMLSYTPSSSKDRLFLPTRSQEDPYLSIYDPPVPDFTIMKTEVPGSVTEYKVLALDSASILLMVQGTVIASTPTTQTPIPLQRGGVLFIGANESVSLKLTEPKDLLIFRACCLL

[28] = target: Cytochrome P450 2C9 (Homo sapiens, UniProt P11712)
Cytochrome P450 2C9, sequence (P11712 whole entry): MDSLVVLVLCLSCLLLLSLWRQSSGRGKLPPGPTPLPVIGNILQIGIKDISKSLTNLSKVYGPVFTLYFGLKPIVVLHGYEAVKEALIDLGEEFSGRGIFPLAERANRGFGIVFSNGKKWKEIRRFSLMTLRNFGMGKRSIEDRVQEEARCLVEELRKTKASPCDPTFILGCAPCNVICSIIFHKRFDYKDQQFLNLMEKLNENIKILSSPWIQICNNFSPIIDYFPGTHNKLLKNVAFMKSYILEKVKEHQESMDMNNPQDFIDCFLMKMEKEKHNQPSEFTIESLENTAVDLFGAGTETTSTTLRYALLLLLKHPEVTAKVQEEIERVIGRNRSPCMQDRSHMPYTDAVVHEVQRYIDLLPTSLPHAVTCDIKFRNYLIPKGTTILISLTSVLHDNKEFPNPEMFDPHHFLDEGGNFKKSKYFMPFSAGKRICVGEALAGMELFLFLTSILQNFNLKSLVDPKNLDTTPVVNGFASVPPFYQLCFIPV

[29] = LGR2 antagonists, dose response, cell-based, HEK293, CRE-luciferase reporter, cherry pick, set 2 (AID 743343); format: functional;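 further: transfected cells were stimulated with diluted bursicon conditioned medium after compound addition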
[30] = inhibitors of firefly luciferase expression or activity, dose response, H4 neuroglioma cells, luminescence (AID 1990); format: functional, cell-based
[31] = inhibitors of SNCA 5'UTR-driven reporter translation, confirmation, H4 neuroglioma cells, luminescence (AID 1988); format: functional, cell-based
[32] = Luminescence Cell-Based Dose Response HTS to Identify Inhibitors of 5'UTR Stem-Loop Driven Prion Protein mRNA Translation in H4 Neuroglioblastoma Cells. [Related pubchem assays: 1827 (Project Summary), 1813 (Primary HTS)]; format: functional
[33] = MC4R antagonists, dose response, counter-screen for LGR2 antagonist project, cell-based, plate reader, cherry pick (AID 743444); format: functional;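 further: transfected HEK 293 cells stimulated with alpha-MSH peptide; potency of inhibitors of the alpha-MSH evoked signal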
[34] = test system: H4; experiment: Luminescence Cell-Based Dose Response HTS to Identify Activators of 5'UTR Stem-Loop Driven Prion Protein mRNA Translation in H4 Neuroglioblastoma Cells. [Related pubchem assays: 1829 (Project Summary), 1814 (Primary HTS)]; format: functional; conditions: Homo sapiens
[35] = Luminescence Cell-Based Dose Confirmation HTS to Identify Activators of 5'UTR Stem-Loop Driven Alpha-Synuclein mRNA Translation in H4 Neuroglioblastoma Cells. [Related pubchem assays: 1829 (Project Summary), 1814 (Primary HTS)]; format: functional
[36] = Luminescence Cell-Based Dose Response HTS to Identify Activators of Luciferase Translation or Activity in H4 […] Cells. [Related pubchem assays: 1829 (Project Summary), 1814 (Primary HTS)]; format: functional
[37] = target: Glucose-6-phosphate 1-dehydrogenase (Homo sapiens, UniProt P11413); experiment: human G6PD enzyme inhibitors, dose response, selectivity assay for P. falciparum G6PD inhibitor project, biochemical, fluorescence (AID 504792); format: functional
Glucose-6-phosphate 1-dehydrogenase, sequence (P11413 whole entry): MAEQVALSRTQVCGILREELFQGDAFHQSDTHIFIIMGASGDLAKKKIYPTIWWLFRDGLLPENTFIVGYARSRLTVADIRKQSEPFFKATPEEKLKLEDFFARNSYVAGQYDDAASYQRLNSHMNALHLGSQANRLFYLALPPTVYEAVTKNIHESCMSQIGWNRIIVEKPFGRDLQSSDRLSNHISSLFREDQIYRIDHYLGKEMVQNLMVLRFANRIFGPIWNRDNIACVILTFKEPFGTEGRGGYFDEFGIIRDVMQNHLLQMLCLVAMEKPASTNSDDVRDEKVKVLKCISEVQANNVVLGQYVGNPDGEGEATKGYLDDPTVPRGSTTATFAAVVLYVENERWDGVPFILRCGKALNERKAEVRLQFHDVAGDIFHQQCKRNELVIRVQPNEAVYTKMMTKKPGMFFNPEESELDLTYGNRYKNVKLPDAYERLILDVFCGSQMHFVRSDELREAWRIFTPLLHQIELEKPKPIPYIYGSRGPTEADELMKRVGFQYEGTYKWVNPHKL

[38] = target: Luciferin 4-monooxygenase (Photinus pyralis, UniProt P08659); experiment: firefly luciferase enzyme inhibitors, dose response, biochemical, luminescence (AID 1891)
Luciferin 4-monooxygenase, sequence (P08659 whole entry): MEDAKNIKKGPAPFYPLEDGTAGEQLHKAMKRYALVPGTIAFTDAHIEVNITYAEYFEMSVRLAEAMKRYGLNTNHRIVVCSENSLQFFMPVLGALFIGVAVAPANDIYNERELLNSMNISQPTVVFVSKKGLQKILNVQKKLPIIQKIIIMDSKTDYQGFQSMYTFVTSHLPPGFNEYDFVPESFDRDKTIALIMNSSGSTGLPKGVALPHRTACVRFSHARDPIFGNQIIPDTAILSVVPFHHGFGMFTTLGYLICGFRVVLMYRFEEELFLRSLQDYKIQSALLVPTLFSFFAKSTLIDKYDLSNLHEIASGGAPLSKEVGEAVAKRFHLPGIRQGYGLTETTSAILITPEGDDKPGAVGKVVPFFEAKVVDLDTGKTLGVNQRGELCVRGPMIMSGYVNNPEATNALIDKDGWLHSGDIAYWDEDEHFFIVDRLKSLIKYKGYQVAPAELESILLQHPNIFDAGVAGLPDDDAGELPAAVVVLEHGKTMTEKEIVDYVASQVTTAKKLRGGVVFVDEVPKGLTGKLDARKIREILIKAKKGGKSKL

[39] = Luminescence Cell-Based Dose Confirmation HTS to Identify Inhibitors of Platelet Dense Granule Release. [Related pubchem assays: 1663 (Primary HTS), 1678 (Summary of Project)]; format: functional

Structure (SMILES): COc1cccc(-c2nnc3sc(C4CCCCC4)nn23)c1
- AC50 [1]: 17 µM (active)
- AC50 [2]: 3.09 µM (active)
- AC50 [3]: 4.26 µM (active)
- AC50 [4]: 5.07 µM (active)
- AC50 [5]: 3.63 µM (active)
- AC50 [6]: 30 µM (active)

Structure (SMILES): CCCN1CCN(C(=O)CN2C(=O)CC(C)(C)S(=O)(=O)c3ccccc32)CC1
- AC50 [7]: inconclusive
- AC50 [8]: 12.6 µM (inconclusive)
- AC50 [9]: inconclusive

Structure (SMILES): O=C(Nc1ccccn1)c1ccccc1
- AC50 [10]: 83.2 µM (active)

Structure (SMILES): O=C(c1ccccc1)N1CCN(c2nc3ccc([N+](=O)[O-])cc3s2)CC1
- AC50 [11]: 28.7 µM (active)

Structure (SMILES): Cn1c(=O)c2cc(S(=O)(=O)NC(C(=O)Nc3cccc(F)c3)c3ccccc3)ccc2n(C)c1=O (stereo not drawn)
- IC50 [12]: > 100 µM (inactive)
- IC50 [13]: 92.8 µM (active)
- IC50 [14]: > 100 µM (inactive)

Structure (SMILES): COc1cc2c(C)nc3c(cnn3-c3ccccc3)c2cc1OC
- AC50 [10]: 86.7 µM (active)

Structure (SMILES): O=C1CCCCCC1C1(O)C(=O)Nc2ccc(Br)cc21 (stereo not drawn)
- AC50 [8]: 17.8 µM (inconclusive)
- AC50 [9]: inconclusive

Structure (SMILES): O=C(Nc1cc(C(F)(F)F)ccc1-n1cncn1)c1ccc([N+](=O)[O-])o1
- IC50 [15]: 19.8 µM (active)
- CC50 [16]: 8.89 µM (active)
- CC50 [17]: 37.3 µM (active)
- IC50 [18]: 11 µM (active)
- CC50 [19]: 6.96 µM (active)

Structure (SMILES): O=C1C(/C=N/c2ccccc2O)=C(O)c2ccccc21
- IC50 [20]: 23.1 µM (not active)
- EC50 [21]: > 67.5 µM (inactive)
- EC50 [22]: > 67.5 µM (inactive)

Structure (SMILES): CN1[C@@H]2CC[C@H]1CC(NC(=O)c1nn(C)c3ccccc13)C2 (stereo partly drawn)
- AC50 [23]: inconclusive

Structure (SMILES): COc1ccc(/N=C2\SC(C(=O)O)CC(=O)N2Cc2ccc(OC)c(OC)c2)cc1 (stereo not drawn)
- AC50 [11]: 86.2 µM (active)

Structure (SMILES): CCc1ccc(/C=N/NC(=O)c2ccccn2)cc1
- IC50 [15]: 5.9 µM (active)
- AC50 [1]: 3.11 µM (active)

Structure (SMILES): O=C(Oc1ccccc1)N1CCC2(CC1)CCN(c1ncccn1)CC2
- AC50 [23]: inconclusive

Structure (SMILES): CN1CCN(c2cc3c(cc2F)c(=O)c(C(=O)O)cn3CCF)CC1
- IC50 [15]: 3.08 µM (active)
- AC50 [11]: 2.57 µM (active)
- EC50 [24]: 7.64 µM (active)
- EC50 [25]: 5.58 µM (active)

Structure (SMILES): CNC(=O)CNC(=O)Nc1ccc(C)cc1
- AC50 [11]: 29.8 µM (active)

Structure (SMILES): COc1ccc(/C=C2\N=C(C)OC2=O)cc1[N+](=O)[O-]
- AC50 [1]: 237 µM (active)

Structure (SMILES): COc1ccc(C(=O)Nc2ccc3c4c(cccc24)CC3)cc1
- AC50 [10]: 73.4 µM (active)

Structure (SMILES): Cc1ccc(-n2nc3cc(C)c(N)cc3n2)cc1
- EC50 [21]: > 67.5 µM (inactive)
- IC50 [26]: 7.02 µM (active)
- IC50 [27]: > 50 µM (not active)
- EC50 [22]: > 67.5 µM (inactive)

Structure (SMILES): COC(=O)c1ccccc1NC(=O)c1c(Br)cnn1C
- AC50 [23]: inconclusive
- AC50 [28]: inconclusive

Structure (SMILES): CCOC(=O)c1cn2nc(N3CCCC3)ccc2n1
- AC50 [29]: 5.94 µM (active)
- AC50 [1]: 3.17 µM (active)
- EC50 [30]: 8.17 µM (inconclusive)
- EC50 [31]: 5.55 µM (active)
- EC50 [32]: 2.56 µM (active)
- AC50 [33]: 5.54 µM (active)

Structure (SMILES): Cc1nn(-c2ccccc2)c2c1C(O)n1c(nc3ccccc31)S2 (stereo not drawn)
- IC50 [20]: > 93.1 µM (not active)
- EC50 [34]: > 120 µM (not active)
- EC50 [35]: > 120 µM (not active)
- EC50 [36]: > 120 µM (not active)

Structure (SMILES): O=C(CNc1cccc2ccccc12)N/N=C/C=C/c1ccco1
- IC50 [27]: > 50 µM (not active)

Structure (SMILES): CC(C)(C)NC(=O)COc1ccc(CNc2ccc3[nH]c(O)nc3c2)cc1
- IC50 [37]: 64.6 µM (inactive)
- EC50 [38]: > 112 µM (not active)
- IC50 [27]: > 50 µM (not active)
- EC50 [39]: 17.9 µM (active)
